Results: patent US5216001A, “Indole derivatives” (H. Lunbeck A/S, priority 1990, dated 1993)

Experiments:
[1] = target: T1, serotonin S2 (5-HT2) receptors (Rattus norvegicus, UniProt P14842); test: inhibition of 3H-ketanserin binding to serotonin S2 (5-HT2) receptors in rat cortex in vitro; conditions: 3H-ketanserin 0.5 nM, rat cortex membranes, read-out: Binding IC50, 3H Ket.
T1 construct: cortical tissue is dissected and weighed; from tissue; host or cells: cerebral cortex membranes of male Wistar (Mol:Wist) rats
T1 sequence (P14842 whole entry): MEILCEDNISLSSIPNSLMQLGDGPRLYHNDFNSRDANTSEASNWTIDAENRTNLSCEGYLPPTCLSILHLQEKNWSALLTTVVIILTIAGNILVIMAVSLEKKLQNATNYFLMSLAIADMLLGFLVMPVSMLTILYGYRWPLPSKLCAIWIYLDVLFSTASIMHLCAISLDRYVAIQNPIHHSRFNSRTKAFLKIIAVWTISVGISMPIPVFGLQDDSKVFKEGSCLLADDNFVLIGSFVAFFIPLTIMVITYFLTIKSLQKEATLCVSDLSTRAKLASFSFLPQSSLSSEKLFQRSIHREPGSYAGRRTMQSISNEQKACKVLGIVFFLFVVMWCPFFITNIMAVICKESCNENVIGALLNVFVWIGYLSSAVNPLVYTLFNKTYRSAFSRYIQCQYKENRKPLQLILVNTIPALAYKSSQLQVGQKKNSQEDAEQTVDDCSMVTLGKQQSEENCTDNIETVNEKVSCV

α1 adrenoceptors = test: inhibition of 3H-prazosin binding to α1 adrenoceptors in rat brain in vitro; conditions: 3H-prazosin 0.25 nM, rat brain membranes, read-out: Binding IC50, 3H Praz.
Method: INHIBITION OF ^3 H-PRAZOSIN BINDING TO α1 ADRENOCEPTORS IN RAT BRAIN IN VITRO
Method and results in Hyttel and Larsen, J. Neurochem, 44, 1615-1622, 1985; Skarsfeldt and Hyttel, Eur. J. Pharmacol. 125, 323-340, 1986.
Male Wistar (Mol:Wist) rats (125-200 g) are sacrificed and brain tissue is dissected and weighed. The tissue is homogenized (Ultra Turrax, 10 sec.) in 10 ml of ice-cold […] Tris buffer pH 7.7 (at 25° C.). The homogenate is centrifuged twice at 20,000 g for 10 min. at 4° C. with rehomogenization of the pellet in 10 ml ice-cold buffer. The final pellet is homogenized in 400 vol (w/v) ice-cold buffer.
Incubation tubes kept on ice in triplicate receive 100 μl of drug solution in water (or water for total binding) and 4000 μl of tissue suspension (final tissue content corresponds to 10 mg original tissue). The binding experiment is initiated by addition of 100 μl of ^3 H-Prazosin (final concentration 0.25 nM) and by placing the tubes in a 25° C. water bath. After incubation for 20 min. the samples are filtered under vacuum (0-50 mBar) through Whatman GF/F filters (25 mm). The tubes are rinsed with 5 ml ice-cold buffer which then are poured on the filters. Thereafter, the filters are washed with 5 ml of buffer. The filters are placed in counting vials and 4 ml of appropriate scintillation fluid (e.g. Picofluor™15) are added. After shaking for 1 h and storage 2 hrs in the dark the content of radioactivity is determined by liquid scintillation counting. Specific binding is obtained by subtracting the nonspecific binding in the presence of 1 μM of Prazosin.
For determination of the inhibition of binding five concentrations of drugs covering 3 decades are used.
The measured cpm are plotted against drug concentration on semilogarithmic paper and the best fitting S-shaped curve is drawn. The IC50 value is determined as the concentration at which the binding is 50% of the total binding in control samples minus the nonspecific binding in the presence of 1 μM of Prazosin. ^3 H-Prazosin=[furoyl-5-^3 H]-Prazosin from New England Nuclear, specific activity approximately 20 Ci/mmol.

5-HT2 = target: T2, 5-HT2 (Rattus norvegicus, UniProt P14842); test: quipazine inhibition (quipazine-induced head twitches in rats); assay type: in vivo; conditions: sc, 24 h, read-out: Quipazine inhibition ED50, 24h (sc)
T2 construct: Four rats, male Wistar (Mol:Wist) SPF rats weighing 170-240 g; from tissue; host or cells: living male Wistar (Mol:Wist) SPF rats (in vivo, endogenous receptor)
T2 sequence (P14842 whole entry): as above

Row | Compound | IC50 [1] [nM] | IC50 (α1 adrenoceptors) [nM] | ED50 (5-HT2) [µmol/kg]
1 | CC(C)N1CCN(CCN2CCC(c3cn(-c4ccc(F)cc4)c4cc(Cl)ccc34)CC2)C1=O [Compound 4a, 6-chloro-1-(4-fluorophenyl)-3-[1-[2-[3-(2-propyl)-2-imidazolidinon-1-yl]ethyl]-4-piperidyl]-1H-indole] | 1.5 | 70 | –
2 | Cc1ccc2c(C3CCN(CCN4CCNC4=O)CC3)cn(-c3ccc(F)cc3)c2c1 [Compound 4g, 1-(4-fluorophenyl)-3-[1-[2-(2-imidazolidinon-1-yl)ethyl]-4-piperidyl]-6-methyl-1H-indole] | 0.8 | 24 | –
3 | Cc1ccc2c(C3CCN(CCN4CCN(C(C)C)C4=O)CC3)cn(-c3ccc(F)cc3)c2c1 [Compound 5a, 1-(4-fluorophenyl)-6-methyl-3-[1-[2-[3-(2-propyl)-2-imidazolidinon-1-yl]ethyl]-4-piperidyl]-1H-indole] | 1.6 | 85 | –
4 | OCCN1CCN(c2cn(-c3ccc(F)cc3)c3ccc(C(F)(F)F)cc23)CC1 [Lu 21-152, 1-(4-fluorophenyl)-3-[4-(2-hydroxyethyl)-1-piperazinyl]-5-trifluoromethyl-1H-indole, reference compound] | 1.4 | 7.6 | 0.15
